Where a name gives a salt, the structure may show the parent alone. Read-outs that look alike come from different tables or passages of the source.
Tests used:
[1] = tested on: human duplex sequence FdxT; experiment: FRET-melting, FdxT; details: duplex control, K+ condition, 2 μM compound, 0.2 μM oligonucleotide
[2] = tested on: Plasmodium falciparum 3D7; experiment: In vitro antiplasmodial activity, SYBR Green I, strain 3D7
Procedure: (§1) The in vitro antiplasmodial activities were tested over concentrations ranging from 39 to 40 μm against culture-adapted Plasmodium falciparum: reference strains 3D7 and W2. […] The parasites were cultivated in RPMI medium (Sigma-Aldrich, Lyon, France) supplemented with 0.5% Albumax I (Life Technologies Corporation, Paisley, UK), hypoxanthine (Sigma-Aldrich), and gentamicin (Sigma-Aldrich) with human erythrocytes and were incubated at 37° C. in a candle jar, as described in Desjardins R E et al., Antimicrob Agents Chemother, 1979; 16:710-18.
(§2) The P. falciparum drug susceptibility test was carried out in 96-well flat bottom sterile plates in a final volume of 250 μL. After a 48-hour incubation with the drugs, quantities of DNA in treated and control cultures of parasites in human erythrocytes were quantified using the SYBR Green I (Sigma-Aldrich) fluorescence-based method as described in Bennett T N et al, Antimicrob Agents Chemother, 2004; 48:1807-10. Briefly, after incubation, plates were frozen at −20° C. until use. Plates were then thawed for 2 hours at room temperature, and 100 μL of each homogenized culture was transferred to a well of a 96-well flat bottom sterile black plate (Nunc, Inc., Rochester, NY) that contained 100 μL of the SYBR Green I lysis buffer (2×SYBR Green, 20 mM Tris base pH 7.5, 5 mM EDTA, 0.008% w/v saponin, 0.08% w/v Triton X-100). […] Plates were incubated for 1 hour at room temperature and then read on a fluorescence plate reader (Tecan, Grödig, Austria) using excitation and emission wavelengths of 485 and 535 nm, respectively. Concentrations inhibiting 50% of the parasite's growth (half maximal inhibitory concentration or IC50 values) were then calculated from the obtained experimental results by non-linear regression analysis of data from dose-response curves, using TableCurve 2D version 5.0 software (Systat Software, San Jose, CA). IC50 values are reported as means calculated from three independent experiments, as described in H. Kaddouri et al., Antimicrob.

[3] = tested on: human telomeric sequence F21T; experiment: FRET-melting, F21T; details: K+ condition, 2 μM compound, 0.2 μM oligonucleotide
[4] = tested on: Plasmodium telomeric sequence FPf1T; experiment: FRET-melting, FPf1T; details: K+ condition, 2 μM compound, 0.2 μM oligonucleotide
[5] = tested on: Trypanosoma 9 and 11 chromosomic sequence FTrypBT; experiment: FRET-melting, FTrypBT; details: K+ condition, 2 μM compound, 0.2 μM oligonucleotide
[6] = tested on: T. brucei brucei AnTat 1.9; experiment: In vitro antitrypanosomal activity, Alamar Blue assay; assay type: cell-based, Trypanosoma brucei brucei; details: Trypanosoma brucei, read-out: IC50 T. brucei brucei
Procedure: The effects of the tested compounds on the growth of T. brucei brucei were assessed using an Alamar Blue® assay described in B. Raz et al., Acta Trop. 1997, 68, 139. T. brucei brucei AnTat 1.9 (IMTA, Antwerpen, Belgium) was cultured in MEM with Earle's salts, supplemented according to the protocol disclosed in T. Baltz et al., EMBO J. 1985, 4, 1273, with the following modifications: 0.5 mM mercaptoethanol (Sigma-Aldrich), 1.5 mM 1-cysteine (Sigma-Aldrich), 0.05 mM bathocuproine sulfate (Sigma-Aldrich), and 20% heat-inactivated horse serum (Gibco, France) at 37° C. and 5% CO2. Samples were incubated at an average density of 2000 parasites/well in sterile 96-well plates (Fisher, France) with various concentrations of compounds dissolved in 0.9% NaCl. All doses were tested in duplicate. Appropriate controls treated with solvents 0.9% NaCl or DMSO or with suramin, pentamidine, eflornithine, and fexinidazole (reference drugs purchased from Sigma-Aldrich and Fluorochem, UK) were added to each set of experiments. After a 69-hour incubation at 37° C., 10 μl of the viability marker Alamar Blue (Fisher) was added to each well, and the plates were incubated for 5 hour. The plates were read in a PerkinElmer ENSPIRE (Germany) microplate reader using an excitation wavelength of 530 nm and an emission wavelength of 590 nm. The IC50 was defined as the concentration of drug necessary to inhibit by 50% the activity of T. brucei brucei compared to the control. IC50 values were calculated using a non-linear regression analysis of dose-response curves performed using GraphPad Prism software (USA). IC50 values were calculated from three independent experiments.

[7] = tested on: Plasmodium telomeric sequence FPf8T; experiment: FRET-melting, FPf8T; details: K+ condition, 2 μM compound, 0.2 μM oligonucleotide
Plasmodium falciparum W2 = experiment: In vitro antiplasmodial activity, SYBR Green I, strain W2
Procedure: as §1, §2

[8] = Plasmodium falciparum, 3D7, 48 h, read-out: IC50 Plasmodium falciparum 3D7, chloroquine-sensitive strain 3D7, 48-hour incubation
[9] = 69-hour incubation, Alamar Blue
[10] = Plasmodium falciparum, W2, 48 h, read-out: IC50 Plasmodium falciparum W2, chloroquine-resistant strain W2, 48-hour incubation
[11] = read-out: IC50 Plasmodium falciparum 3D7, chloroquine-sensitive strain 3D7, 48-hour incubation, oxalate
[12] = read-out: IC50 Plasmodium falciparum 3D7, chloroquine-sensitive strain 3D7, 48-hour incubation
[13] = read-out: IC50 Plasmodium falciparum W2, chloroquine-resistant strain W2, 48-hour incubation

SMILES | FRET-melting values in K+ conditions at 2 μM ΔTm FdxT [1] [°C] | IC50 [2, 8] [nM] | FRET-melting values in K+ conditions at 2 μM ΔTm F21T [3] [°C] | FRET-melting values in K+ conditions at 2 μM ΔTm FPf1T [4] [°C] | FRET-melting values in K+ conditions at 2 μM ΔTm FtryBT [5] | IC50 [6, 9] [nM] | FRET-melting values in K+ conditions at 2 μM ΔTm FPf8T [7] [°C] | IC50 (Plasmodium falciparum W2; [10]) [nM] | IC50 ([6]; 69 h) [nM] | IC50 [2, 11] [nM] | IC50 [2, 12] [nM] | IC50 (Plasmodium falciparum W2; [13]) [nM] | IC50 (Plasmodium falciparum W2; read-out: IC50 Plasmodium falciparum W2, chloroquine-resistant strain W2, 48-hour incubation, oxalate) [nM]
CN(C)CCCNCc1ccc(-c2nc3c(c(-c4ccc(CNCCCN(C)C)cc4)n2)CCNC3)cc1 [Compound 25B, 2,4-Bis{4-[(3-dimethylaminopropyl)aminomethyl]phenyl})-5,6,7,8-dihydropyrido[3,4-d]pyrimidine oxalate] | −0.9 | 790 ± 120 | 12.3 | 10.7 | 8.0 °C | 2430 ± 100 | 11.1 | 2230 ± 230 | – | – | – | – | –
CN(C)CCCNCc1ccc(-c2nc3c(c(-c4ccc(CNCCCN(C)C)cc4)n2)CCN(C(=O)OC(C)(C)C)C3)cc1 [Compound 24B, Tert-butyl 2,4-bis{4-[(3-dimethylaminopropyl)aminomethyl]phenyl})-5,6-dihydropyrido[3,4-d]pyrimidine-7(8H)-carboxylate oxalate] | −0.7 | 1630 ± 250 | 10.3 | 9.1 | 7.6 °C | 780 ± 60 | 11.6 | 180 ± 40 | – | – | – | – | –
CN(C)CCCCNCc1ccc(-c2nc(-c3ccc(CNCCCCN(C)C)cc3)c3ncn(-c4ccccc4)c3n2)cc1 [Compound 40B, 2,4-Bis{4-[(4-dimethylaminobutyl)aminomethyl]phenyl}-7-phenyl-7H-imidazo[4,5-d]pyrimidine oxalate] | 8.51 | 4740 ± 900 | 31.68 | 35.1 | 30.3 °C | – | 33.9 | 1770 ± 90 | – | – | – | – | –
CN(C)CCCNCc1ccc(-n2ccc3c(-c4ccccc4)nc(-c4ccccc4)nc32)cc1 [Compound 12B, 7-(4-[(3-Dimethylaminopropyl)aminomethyl]phenyl)-2,4-diphenyl-7H-pyrrolo[2,3-d]pyrimidine oxalate] | – | 380 ± 250 | – | – | – | – | – | 9140 | – | – | – | – | –
CN(C)CCCNCc1cc(-c2nc(Cl)nc3c2ccn3-c2ccccc2)cs1 [Compound 20B, 2-Chloro-4-{2-[(3-dimethylaminopropyl)aminomethyl]thien-4-yl}-7-phenyl-7H-pyrrolo[2,3-d]pyrimidine oxalate] | – | 590 ± 170 | – | – | – | – | – | 13600 ± 430 | 80 | – | – | – | –
CN(C)CCCNCc1ccc(-c2nc(Cl)nc3c2ncn3-c2ccccc2)cc1 [Compound 43B, 2-Chloro-4-{4-[(3-dimethylaminopropyl)aminomethyl]phenyl}-7-phenyl-7H-imidazo[4,5-d]pyrimidine oxalate] | 0.04 | 1530 ± 390 | 1.7 | 2.4 | 2.7 °C | – | 3.3 | 830 ± 170 | – | – | – | – | –
CN1CCN(CCCCNCc2ccc(-c3nc(-c4ccc(CNCCCCN5CCN(C)CC5)cc4)c4cnn(-c5ccccc5)c4n3)cc2)CC1 [Compound 39B, 4,6-Bis{4-[(4-(4-methylpiperazin-1-yl)butyl)aminomethyl]phenyl}-1-phenyl-1H-pyrazolo[3,4-d]pyrimidine oxalate] | – | – | – | – | – | – | – | 1530 ± 90 | – | 1830 ± 470 | – | – | –
CN(C)CCCNCc1ccc(-c2cc(Cl)nc3c2ccn3-c2ccccc2)cc1 [Compound 47B, 6-Chloro-4-{4-[(3-dimethylaminopropyl)aminomethyl]phenyl}-1-phenyl-1H-pyrrolo[2,3-b]pyridine oxalate] | −0.2 | 150 ± 20 | 2.8 | 3.3 | 4.3 °C | – | 4.0 | 720 ± 300 | – | – | – | – | –
CN(C)CCCNCc1ccc(-c2nc(-c3ccc(CNCCCN(C)C)cc3)c3cnn(-c4ccccc4)c3n2)cc1 [Compound 36B, 4,6-Bis{4-[(3-dimethylaminopropyl)aminomethyl]phenyl}-1-phenyl-1H-pyrazolo[3,4-d]pyrimidine oxalate] | – | 2510 ± 250 | – | – | – | – | – | 930 ± 150 | – | – | – | – | –
COC(=O)C(N)CCCCNCc1ccc(-c2nc(-c3ccc(CNCCCCC(N)C(=O)OC)cc3)c3ccn(C)c3n2)cc1 (stereo not shown) [Compound 11B, 2,4-Bis{4-[(5-amino-5-(methoxycarbonyl)pentyl)aminomethyl]phenyl}-7-methyl-7H-pyrrolo[2,3-d]pyrimidine oxalate] | – | > 40000 | – | – | – | 5040 ± 730 | – | 70 ± 10 | – | – | – | – | –
CN1CCN(CCCCNCc2ccc(-c3nc(-c4ccc(CNCCCCN5CCN(C)CC5)cc4)c4cnn(-c5ccccc5)c4n3)cc2)CC1 [Compound 42B] | 6.8 | – | 30.2 | 33.2 | 30. ° C. | – | 32.1 | – | – | – | 700 ± 150 | 2370 ± 130 | –
CN(C)CCCCCNCc1ccc(-c2nc(-c3ccc(CNCCCCCN(C)C)cc3)c3cnn(-c4ccccc4)c3n2)cc1 [Compound 38B, 4,6-Bis{4-[(5-dimethylaminopentyl)aminomethyl]phenyl}-1-phenyl-1H-pyrazolo[3,4-d]pyrimidine oxalate] | – | – | – | – | – | – | – | – | – | 350 ± 90 | – | – | 4730 ± 280
CN(C)CCCCCNCc1ccc(-c2nc(-c3ccc(CNCCCCCN(C)C)cc3)c3cnn(-c4ccccc4)c3n2)cc1 [Compound 41B] | 9.7 | – | 34.0 | 36.4 | 33.0 °C | – | 34.9 | – | – | – | 1990 ± 900 | 1990 ± 120 | –
CN(C)CCCCNCc1ccc(-c2nc(-c3ccc(CNCCCCN(C)C)cc3)c3cnn(-c4ccccc4)c3n2)cc1 [Compound 37B, 4,6-Bis{4-[(4-dimethylaminobutyl)aminomethyl]phenyl}-1-phenyl-1H-pyrazolo[3,4-d]pyrimidine] | – | – | – | – | – | – | – | 1180 ± 120 | – | – | – | – | –
COC(=O)C(CCCCNCc1ccc(-c2nc(-c3ccc(CNCCCCC(NC(=O)OC(C)(C)C)C(=O)OC)cc3)c3ccn(C)c3n2)cc1)NC(=O)OC(C)(C)C (stereo not shown) [Compound 10B, 2,4-Bis{4-[(5-(tert-butoxycarbonylamino)-5-methoxycarbonyl)pentyl)aminomethyl]phenyl}-7-methyl-7H-pyrrolo[2,3-d]pyrimidine oxalate] | −1.0 | 610 ± 240 | 11.8 | 10.1 | 8.9 °C | 7050 ± 660 | 11.0 | 4360 ± 1700 | – | – | – | – | –
CN(C)CCCNCc1ccc(-n2ccc3c(-c4ccccc4)nc(Cl)nc32)cc1 [Compound 22B, 2-Chloro-7-(4-[(3-dimethylaminopropyl)aminomethyl]phenyl)-4-phenyl-7H-pyrrolo[2,3-d]pyrimidine oxalate] | – | 800 ± 410 | – | – | – | – | – | 730 ± 220 | 30 | – | – | – | –
CN1CCN(CCCNCc2ccc(-c3nc(Cl)nc4c3ccn4-c3ccccc3)cc2)CC1 [Compound 18B, 2-chloro-4-{4-[(3-(4-methylpiperazin-1-yl)propyl)aminomethyl]phenyl}-7-phenyl-7H-pyrrolo[2,3-d]pyrimidine oxalate] | – | 680 ± 130 | – | – | – | – | – | 6960 ± 650 | 60 | – | – | – | –
CN1CCN(CCCNCc2ccc(-n3ccc4c(-c5ccccc5)nc(Cl)nc43)cc2)CC1 [Compound 23B, 2-Chloro-7-(4-[(3-(4-methylpiperazin-1-yl)propyl)aminomethyl]phenyl)-4-phenyl-7H-pyrrolo[2,3-d]pyrimidine oxalate] | – | 380 ± 250 | – | – | – | – | – | 9140 | – | – | – | – | –

— patent US20250360134A1, “6-6 OR 5-6 FUSED BICYCLIC COMPOUNDS COMPRISING A PYRI(MI)DINE RING USEFUL IN THE|TREATMENT OF INFECTIOUS DISEASES” (INSTITUT NATIONAL DE LA SANTE ET DE LA RECHERCHE MEDICALE …, priority 2020, published 2025)
